According to PubChem BioAssay AID1645866 (Buhrlage Lab, Dana-Farber Cancer Institute and Novartis …, 2021):
The source made the active and inactive calls.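 How the source made its calls: active means in confirmatory dose-response testing, peak deubiquitinase inhibition of 30% or more; inactive means the rest.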

What follows are compounds tested against Ubiquitin carboxyl-terminal hydrolase 28 (Homo sapiens) (UniProt Q96RU2) (assay: Concentration-response biochemical assay confirming initial hits as inhibitors of ubiquitin-specific protease 28 (AID 1645866)). Settings: purified USP28, ubiquitin-rhodamine fluorescence, 30 min.
Sequence of Ubiquitin carboxyl-terminal hydrolase 28 (Homo sapiens) (Q96RU2 whole entry, looked up): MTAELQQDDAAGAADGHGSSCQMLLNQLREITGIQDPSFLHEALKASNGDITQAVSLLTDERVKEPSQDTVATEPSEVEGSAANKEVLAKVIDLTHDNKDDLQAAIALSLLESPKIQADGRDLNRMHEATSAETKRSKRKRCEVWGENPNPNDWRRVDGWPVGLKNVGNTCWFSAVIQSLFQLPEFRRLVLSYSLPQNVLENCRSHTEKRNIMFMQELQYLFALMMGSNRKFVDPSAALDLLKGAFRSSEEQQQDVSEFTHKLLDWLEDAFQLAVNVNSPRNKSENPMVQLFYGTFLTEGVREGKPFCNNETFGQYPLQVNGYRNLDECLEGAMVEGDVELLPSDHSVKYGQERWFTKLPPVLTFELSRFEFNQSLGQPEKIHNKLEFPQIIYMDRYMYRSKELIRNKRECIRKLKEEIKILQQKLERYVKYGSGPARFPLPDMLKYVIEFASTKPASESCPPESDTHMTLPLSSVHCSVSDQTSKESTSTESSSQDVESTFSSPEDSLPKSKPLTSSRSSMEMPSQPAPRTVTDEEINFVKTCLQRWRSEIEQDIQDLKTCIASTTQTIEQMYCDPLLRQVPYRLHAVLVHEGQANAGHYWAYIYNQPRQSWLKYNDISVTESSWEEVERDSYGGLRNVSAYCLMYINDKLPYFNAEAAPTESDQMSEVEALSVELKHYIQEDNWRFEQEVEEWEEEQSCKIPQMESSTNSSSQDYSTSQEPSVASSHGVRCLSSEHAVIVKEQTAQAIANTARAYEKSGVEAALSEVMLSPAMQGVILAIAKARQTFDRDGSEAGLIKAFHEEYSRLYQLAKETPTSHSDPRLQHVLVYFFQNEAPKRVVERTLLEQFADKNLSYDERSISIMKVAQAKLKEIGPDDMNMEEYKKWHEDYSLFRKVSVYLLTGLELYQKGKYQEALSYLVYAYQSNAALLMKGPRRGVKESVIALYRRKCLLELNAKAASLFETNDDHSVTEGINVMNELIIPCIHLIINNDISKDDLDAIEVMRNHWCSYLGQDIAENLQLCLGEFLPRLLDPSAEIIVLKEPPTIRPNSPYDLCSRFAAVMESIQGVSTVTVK

How did the IC50 turn out when CC(C)(C)C(=O)C1C2C(=O)N(Cc3ccccc3)C(=O)C2C2c3ccccc3C=CN12 (stereo not drawn) was run?
The IC50 was > 50 µM (inactive).

How did the IC50 turn out when Cc1ccc2c(c1)c(=O)c(C(=O)c1ccc(F)cc1)cn2CC(=O)Nc1ccc2c(c1)OCCO2 was run?
The IC50 was 35.9 µM.

With O=C(Nc1ccccc1Sc1ncc(-c2ccc(Cl)cc2)cn1)c1ccco1 as the compound, how does the IC50 read?
Its IC50 is 23.6 µM.

How did the IC50 turn out when O=C(Nc1ccc(-c2cn3ccccc3n2)cc1)C1C=C2C=C(Br)C=CC2OC1=O (stereo not drawn) was run?
The IC50 was 1.97 µM.

Which IC50 does the source give for O=C(Nc1ccc2c(c1)OCCO2)Nc1nnc(CC(=O)N2CCCCC2)s1 here?
Its IC50 is 20.5 µM.

Which IC50 does the source give for O=C(CCCC(=O)c1ccccc1)Nc1ccc(F)cc1 here?
Its IC50 is 35 µM.

How did the IC50 turn out when CNC(=O)c1c2n(c3ncccc13)CCN(S(=O)(=O)c1ccc(-c3ccccc3)cc1)C2 was run?
The IC50 was 10.2 µM.

For COC(=O)c1ccc(Cn2cnc3ccc(Br)cc3c2=O)o1, which IC50 is on record?
The IC50 was 2.07 µM.

Which IC50 does the source give for Cc1ccc2c(c1)N=C(c1ccc([N+](=O)[O-])cc1)CO2 here?
Its IC50 is > 50 µM (inactive).

With CN1CCN(c2ncnc3c2oc2ccc(Cl)cc23)CC1 as the compound, how does the IC50 read?
Its IC50 is > 50 µM (inactive).

How did the IC50 turn out when COc1ccc(C2SCC(=O)Nc3c2c(=O)[nH]n3C2CCCCCC2)cc1 (stereo not drawn) was run?
The IC50 was 25.7 µM.

For O=C(c1cc2ccccc2o1)N1CC=C(c2ccccc2)CC1, which IC50 is on record?
The IC50 was > 50 µM (inactive).

CC1CCc2c(sc3ncnc(NC4CCN(CC(N)=O)CC4)c23)C1 (stereo not drawn) was tested. Which IC50 did it give?
Its IC50 is > 50 µM (inactive).

For CCOc1ccc(Nc2cc(C(=O)NCCc3ccccc3)c3ccccc3n2)cc1, which IC50 is on record?
The IC50 was 26 µM.

For CC(OC(=O)c1ccc2c(c1)OCCO2)C(=O)NCC1CCCCC1 (stereo not drawn), which IC50 is on record?
Its IC50 is 26.1 µM.

How did the IC50 turn out when COc1ccc(NS(=O)(=O)c2ccc(NC(=O)Nc3ccc(Cl)cc3)cc2)cc1 was run?
Its IC50 is 24.9 µM.

For COc1ccccc1NS(=O)(=O)c1ccc2oc(SCC(=O)c3ccccc3)nc2c1, which IC50 is on record?
Its IC50 is > 50 µM (inactive).

With Cc1cccc(NC(=O)CSc2ccc(-n3cnc(-c4ccccc4)c3)nn2)c1 as the compound, how does the IC50 read?
Its IC50 is 16.5 µM.

With O=C(COc1cccc(C(=O)NCc2ccccc2)c1)Nc1ccc(Oc2ccccc2)cc1 as the compound, how does the IC50 read?
The IC50 was 27.9 µM.

Which IC50 does the source give for Cc1cccc(COc2ccc(C3SCC(=O)Nc4n[nH]c(C)c43)cc2)c1 (stereo not drawn) here?
Its IC50 is 5.31 µM.

How did the IC50 turn out when Cc1nn(-c2ccccc2)c2c1N=C1C(Cl)=CC(Cl)=CN1C21C(=O)Nc2ccccc21 (stereo not drawn) was run?
The IC50 was > 50 µM (inactive).

O=C(Nc1cccc2ccccc12)C1CCCN(S(=O)(=O)Cc2ccccc2)C1 (stereo not drawn) was tested. Which IC50 did it give?
The IC50 was 18.8 µM.

How did the IC50 turn out when O=C(Nc1ccc(F)c(Cl)c1)c1ccc(N2CCCCS2(=O)=O)cc1Cl was run?
The IC50 was 30.5 µM.

With COc1ccc(-c2cnnn2-c2ccc(NC(=O)c3c(F)cccc3F)cc2)cc1OC as the compound, how does the IC50 read?
Its IC50 is > 50 µM (inactive).

For CSc1cccc(NC(=O)COc2cccc3ccccc23)c1, which IC50 is on record?
Its IC50 is 2.57 µM.

Which IC50 does the source give for Cc1ccc(C(=O)c2cn(CC(=O)Nc3ccccc3)c3ccc(C)cc3c2=O)cc1 here?
Its IC50 is 6 µM.

Which IC50 does the source give for CC(C)Cc1nc2oc3c(N(C)CCO)ncnc3c2c2c1CCC2 here?
The IC50 was > 50 µM (inactive).

With COc1ccc(NC2c3ccccc3C(=O)N2c2ccccn2)cc1 (stereo not drawn) as the compound, how does the IC50 read?
The IC50 was > 50 µM (inactive).

With CC(=O)Nc1ccc([C@H]2OCC(=O)N(C3CCOCC3)[C@@H]2CO)cc1 as the compound, how does the IC50 read?
The IC50 was > 50 µM (inactive).

For Cc1ccc2c(c1)[C@]1(C(=O)N2)[C@@H](C(=O)c2ccccc2)[C@]2(C(=O)Nc3ccccc32)[C@@H]2CCCN21, which IC50 is on record?
Its IC50 is 23.3 µM.

Which IC50 does the source give for Cc1ccccc1NC(=O)c1cc(S(=O)(=O)N2CCCCCC2)ccc1Cl here?
Its IC50 is 25.6 µM.

How did the IC50 turn out when O=[N+]([O-])c1cccc(-c2noc(CSc3ccccc3)n2)c1 was run?
Its IC50 is 3.72 µM.

How did the IC50 turn out when C/C=C\C1=CC(=O)[C@]23C[C@H]2[C@]2(C)CO[C@@]1(O)[C@@]3(O)O2 was run?
The IC50 was > 50 µM (inactive).

How did the IC50 turn out when O=C(c1ccc(Cl)cc1)c1c[nH]cc1-c1c(F)cccc1Cl was run?
Its IC50 is 33.1 µM.

Which IC50 does the source give for COc1ccc(Cl)cc1NC(=O)Cn1c(=O)cc(C)c2c(C)nn(-c3ccccc3)c21 here?
Its IC50 is 5.44 µM.

For O=C(NCc1ccco1)c1ccc2c(c1)N(Cc1cccc(F)c1)C(=O)c1ccccc1S2, which IC50 is on record?
Its IC50 is > 50 µM (inactive).

How did the IC50 turn out when O=C(Nc1cccc(F)c1)c1ncoc1-c1ccco1 was run?
Its IC50 is > 50 µM (inactive).

With COc1cc(OC)cc(C(=O)Nc2cnc(-c3ccccc3)nc2)c1 as the compound, how does the IC50 read?
The IC50 was > 50 µM (inactive).

With NC(=O)c1nnn(-c2ccc(NC(=O)c3ccc(F)c(F)c3)cc2)n1 as the compound, how does the IC50 read?
The IC50 was 11.2 µM.

For O=C(Cn1ncc2c(N3CCCCCC3)ncnc21)NCc1ccccc1, which IC50 is on record?
Its IC50 is > 50 µM (inactive).

O=C1CC(c2ccco2)Cc2[nH]c(=O)c(-c3nc(-c4ccc(Cl)cc4)cs3)cc21 (stereo not drawn) was tested. Which IC50 did it give?
The IC50 was > 50 µM (inactive).

How did the IC50 turn out when O=C(CN1C(=O)C2CCCC2=Nc2ccccc21)Nc1cc(F)ccc1F (stereo not drawn) was run?
The IC50 was 13.5 µM.

CCc1ccc(C2c3c(oc4ccccc4c3=O)C(=O)N2c2nncs2)cc1 (stereo not drawn) was tested. Which IC50 did it give?
The IC50 was > 50 µM (inactive).

Which IC50 does the source give for Cc1ccccc1-c1noc(-c2ccccc2OCC(=O)NC(C)C)n1 here?
The IC50 was > 50 µM (inactive).

For Nc1ncnc(SCc2ccc(Cl)cc2)n1, which IC50 is on record?
The IC50 was 19.7 µM.

For O=C(Cc1ccc(Cl)c(Cl)c1)OCC(=O)c1c[nH]c2ccccc12, which IC50 is on record?
The IC50 was > 50 µM (inactive).

For Cn1c(CCN2CCCC2)nc2cc(NS(=O)(=O)c3ccccc3)ccc21, which IC50 is on record?
The IC50 was > 50 µM (inactive).

With CN(CCCNC(=O)c1cccc2c1SCCC2=O)c1ccccc1 as the compound, how does the IC50 read?
The IC50 was > 50 µM (inactive).

How did the IC50 turn out when COc1ccccc1NC(=O)Cn1cc(C(=O)c2ccc(C)cc2)c(=O)c2ccccc21 was run?
The IC50 was 21.8 µM.

How did the IC50 turn out when O=C1COc2ccc(NC(=O)c3cnn(Cc4ccccc4)c3)cc2N1 was run?
The IC50 was 25.4 µM.

With Cn1cc(CCNC(=O)c2cc3ccccc3[nH]2)c2cccnc21 as the compound, how does the IC50 read?
Its IC50 is 8.29 µM.

How did the IC50 turn out when O=C(Nc1cc(F)c2nc(N3CCOCC3)ccc2c1)C1CC1 was run?
The IC50 was 44.2 µM.

O=c1c2cnc3nc(-c4cccnc4)nn3c2ccn1CCc1ccccc1 was tested. Which IC50 did it give?
The IC50 was > 50 µM (inactive).

For CC(C)c1ccc(C(C(=O)NC2CCCCC2)N(C(=O)c2cnccn2)c2cccc(F)c2)cc1 (stereo not drawn), which IC50 is on record?
The IC50 was 23 µM.

Cc1ccc2[nH]c(=O)c(CN(Cc3cccnc3)C(=O)c3cccc(Cl)c3)cc2c1 was tested. Which IC50 did it give?
The IC50 was > 50 µM (inactive).

With C[C@@]12c3ccc4c(c3C(=O)c3occ(c31)C(O)C[C@H]2O)CCC4=O (stereo partly drawn) as the compound, how does the IC50 read?
The IC50 was > 50 µM (inactive).

O=c1c(Nc2cccc(F)c2)nc2ccncc2n1Cc1ccccc1 was tested. Which IC50 did it give?
The IC50 was 26 µM.

How did the IC50 turn out when O=C(Cc1cccnc1)Nc1ccc(N2CCN(C3CCCCC3)C2=O)nc1 was run?
The IC50 was > 50 µM (inactive).

For CCOc1ccc2cc3c(nc2c1)OC(=O)N(Cc1ccc(C)o1)C3, which IC50 is on record?
The IC50 was 2.93 µM.

Which IC50 does the source give for O=C(Nc1cccn(Cc2c(Cl)cccc2Cl)c1=O)c1ccccc1[N+](=O)[O-] here?
The IC50 was 4.79 µM.

With COc1cccc(N2CCN(C(=O)C3CCN(c4nc(NC(C)=O)ns4)CC3)CC2)c1 as the compound, how does the IC50 read?
The IC50 was > 50 µM (inactive).

With CCS(=O)(=O)c1ccccc1C(=O)Nc1ccc2sc(C)nc2c1 as the compound, how does the IC50 read?
The IC50 was 17.2 µM.

For CCn1c(COc2cccc(C(F)(F)F)c2)nnc1SCc1ccc(Cl)cc1, which IC50 is on record?
The IC50 was 9.88 µM.

With CC1=C(Cn2c3cccc(=O)c-3nc3ccccc32)CCC(C)(C)C1 as the compound, how does the IC50 read?
The IC50 was 2.02 µM.

Cc1nc2ccc(NC(=O)COc3ccccc3[N+](=O)[O-])cc2s1 was tested. Which IC50 did it give?
The IC50 was 11.8 µM.

For COc1ccc(CCNC(=O)CCCn2c(=O)c3ccccc3n(CC(=O)OCc3ccccc3)c2=O)cc1OC, which IC50 is on record?
Its IC50 is 16 µM.

How did the IC50 turn out when CC1OC2CC(O)C1(O)C1=C2C(=O)c2c(O)c3c(c(O)c2C1=O)[C@H](C)O[C@H]1CC(=O)O[C@@H]31 (stereo partly drawn) was run?
Its IC50 is > 50 µM (inactive).

With COc1cccc(NC(=O)C2Cc3ccccc3N2C(=O)c2ccccc2)c1 (stereo not drawn) as the compound, how does the IC50 read?
Its IC50 is 22.6 µM.

How did the IC50 turn out when N#Cc1ccc(NC(=O)Nc2cccn(Cc3ccccc3Br)c2=O)cc1 was run?
Its IC50 is 4.34 µM.

With c1ccc2c(-c3nc(C4CC4)no3)nnc(NCc3ccncc3)c2c1 as the compound, how does the IC50 read?
Its IC50 is 35.9 µM.

Cc1ccn(-c2ccc(NC(=O)c3ccccc3Sc3ccccc3C#N)cc2)n1 was tested. Which IC50 did it give?
Its IC50 is 36.1 µM.

How did the IC50 turn out when O=C(COc1cc([N+](=O)[O-])cc2cccnc12)NCCC1=CCCCC1 was run?
The IC50 was 28.6 µM.

O=C(Cn1cccc1-c1nc(-c2ccccc2)cs1)N1CCOCC1 was tested. Which IC50 did it give?
Its IC50 is 18.3 µM.
